The target in assay [1] is T1, bovine β 3-AR (Bos taurus, UniProt P46626).
T1 construct: expressed in transfected cells; host or cells: Chinese hamster ovary (CHO) cells, pcDNA3.1+ vector
Kind of assay: cAMP induction in CHO cells transfected with bovine β 3-AR construct (LANCE cAMP kit). The note with it: 45 min, 5 mM theophylline. It is filed as cell-based. On the procedure:
(§1) Chinese Hamster Overy cells were transfected with either the bovine β 1-, β 2-, or β 3-AR constructs in pcDNA3.1+. Expression of the β-AR was confirmed by polymerase chain reaction (PCR). Thereafter, cells were grown in DMEM/Ham’s F12 media with 10% FBS and 1% penicillin/streptomycin at 37 °C under 5% CO2. Opti-plates (Perkin Elmer, Waltham, MA) were used for all experiments. For each experiment, cells were plated into 96-well tissue culture plates at 60,000 cells per well in a volume of 100 µL media. Cells were grown for 48 hr after plating prior to ligand addition and determination of cAMP.
(§2) All samples and standards were tested in duplicate for each repetition, and 4 repetitions per cell line were performed for each potential ligand tested. Controls included no treatment (media alone), 5 mM theophylline alone (an inhibitor of phosphodiesterase), 0.1 % DMSO alone, and water alone. None of the controls differed from media alone and are thus not reported. A volume of media equal to the volume of test material to be added was removed from the well just prior to stimulation. Theophylline was added in a volume of 25 µL to obtain a final concentration of 5 mM and each test molecule was delivered in 10 µL. Cells were returned to 37 °C and allowed to incubate for 45 min before media was removed and the cells lysed in 38 µL lysis buffer A. The LANCE cAMP detection kit (AD0262E) was purchased from Perkin Elmer. The LANCE assay instructions were followed for a 40 µL reaction volume with 15 µL of cell lysate. The reaction was incubated for 20 hr prior to measuring fluorescence. A standard curve was generated with increasing concentrations of cAMP, and the linear portion of the curve was used to calculate sample cAMP concentrations.
Background: TR-FRET usually uses a lanthanide donor and a delayed reading to cut background.

The subject of assay [2] is bovine i.m. adipose tissue. In words: cAMP in i.m. adipose tissue explants (Cyclic AMP XP Assay Kit). The class given is cell-based, bovine (Angus cross steers). The note with it: for cAMP: n = 6 steers, baseline 0.64 ± 0.19. The protocol:
(§3) Fresh s.c. adipose tissue was cut into small pieces (50 to 100 mg, actual weight recorded) and i.m. adipose tissue was dissected from the LM as described previously ([Smith and Crouse, 1984]; [Miller et al., 1988]) and weighed. The s.c. and i.m. adipose samples were incubated according to 3 different sets of experimental conditions. Experiment 1: Small pieces of s.c. and i.m. adipose tissues (50 to 100 mg; 1 to 2 mm thick; [Smith and Prior, 1981]) were preincubated in 6-well tissue culture plates in a CO2/O2 incubator (NuAire model 4750 CO2 incubator, Plymouth, MN) for 30 min at 37 °C, 5% CO2 in KHB plus 5 mM glucose, 10 mM HEPES, and 0.5 mM theophylline. […] Experiment 2: The s.c. and i.m. adipose samples were preincubated in KHB plus 5 mM glucose, 10 mM HEPES, and 0.5 mM theophylline in the presence or absence of either 10 µM L-748,337 (β 3-AR antagonist) or 50 µM PRO (β-AR pan-antagonist). […] After the 30 min preincubation, either DOB (β 1-AA) or SAL (β 2-AA) was added to the culture plate wells in a concentration-dependent manner (10^–9 to 10^–4 M) for an additional 30 min. For all experiments, there were at least 3 replicate wells per treatment condition. After a total of 1-hr incubation, the adipose samples were homogenized in 1 mL cell lysis buffer (Cell Signaling Technology, Danvers, MA) with 1 mM phenymethylsulfony fluoride, and centrifuged at 14,000 × g for 30 min to remove tissue debris. The supernatant fractions were stored at −80 °C until subsequent analyses were performed.
(§4) The concentration of cAMP was determined based on the principle of competitive binding using the Cyclic AMP XP Assay Kit according to the manufacturer’s instructions. Cytosolic extracts from the adipose explants were co-incubated at room temperature for 3 hr in 96-well plates with the HRP-linked cAMP substrate coated onto an immobilized rabbit monoclonal cAMP antibody using a horizontal orbital plate shaker. After the reaction, color development was measured at 450 nm using an Epoch microplate reader (Biotek Instruments, Winooski, VT). All samples were analyzed in duplicate. A standard curve and cAMP concentrations were calculated using GrapPad Prism 6.04 software (GraphPad Software Inc., San Diego, CA).

Assay [3] concerns bovine i.m. adipose tissue. The description is as above. The class given is cell-based, bovine (Angus cross steers).
Assay [4] concerns bovine s.c. adipose tissue. In words: cAMP in s.c. adipose tissue explants (Cyclic AMP XP Assay Kit). The class given is cell-based, bovine (Angus cross steers). The note with it: for Effect on cAMP (in words): s.c. adipose tissue, ligand alone; for Effect on cAMP (in words) / cAMP: 30 min; for cAMP: n = 6 steers, baseline 0.42 ± 0.06. The protocol:
as §3, §4

Assay [5] has as its system bovine s.c. adipose tissue. In words: Lipolysis: glycerol release, s.c. adipose tissue explants. The class given is cell-based, bovine (Angus cross steers). The settings on record: 30 min; for Glycerol: s.c., mean ± SEM, baseline 50.0 ± 12.8.
In assay [6] the test system is bovine s.c. adipose tissue. In words: Lipolysis: NEFA release, s.c. adipose tissue explants. The class given is cell-based, bovine (Angus cross steers). The note with it: 30 min; for Effect on NEFA release (in words): s.c. adipose tissue; for NEFA: s.c., mean ± SEM, baseline 0.99 ± 0.40.
In assay [7] the target is T2, bovine β 1-AR (Bos taurus, UniProt Q9TT96).
T2 construct: expressed in transfected cells; host or cells: Chinese hamster ovary (CHO) cells, pcDNA3.1+ vector
T2 sequence (Q9TT96 whole entry): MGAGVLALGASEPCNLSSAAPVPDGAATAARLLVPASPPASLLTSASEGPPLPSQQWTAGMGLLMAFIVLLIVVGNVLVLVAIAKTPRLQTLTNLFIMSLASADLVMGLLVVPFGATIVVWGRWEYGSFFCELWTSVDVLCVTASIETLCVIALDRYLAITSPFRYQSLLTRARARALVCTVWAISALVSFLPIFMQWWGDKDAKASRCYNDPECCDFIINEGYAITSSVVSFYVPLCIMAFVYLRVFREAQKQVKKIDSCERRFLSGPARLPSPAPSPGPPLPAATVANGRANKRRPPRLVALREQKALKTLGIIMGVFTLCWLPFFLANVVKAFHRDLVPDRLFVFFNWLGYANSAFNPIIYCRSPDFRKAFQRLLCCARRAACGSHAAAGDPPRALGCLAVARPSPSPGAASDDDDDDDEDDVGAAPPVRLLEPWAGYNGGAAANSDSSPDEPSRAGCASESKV
In words: cAMP induction in CHO cells transfected with bovine β 1-AR construct (LANCE cAMP kit). The class given is cell-based. The settings on record: 45 min, 5 mM theophylline, ND = cAMP not detected or insufficient for EC50. The protocol: as §1, §2

Assay [8] relates to bovine i.m. adipose tissue. Kind of assay: Lipolysis: glycerol release, i.m. adipose tissue explants. It is filed as cell-based, bovine (Angus cross steers). The note with it: 30 min; for Effect on glycerol release (in words): i.m. adipose tissue; for Glycerol: i.m., mean ± SEM, baseline 48.6 ± 10.3.
The target of assay [9] is T3, bovine β 2-AR (Bos taurus, UniProt Q28044).
T3 construct: expressed in transfected cells; host or cells: Chinese hamster ovary (CHO) cells, pcDNA3.1+ vector
T3 sequence (Q28044 whole entry): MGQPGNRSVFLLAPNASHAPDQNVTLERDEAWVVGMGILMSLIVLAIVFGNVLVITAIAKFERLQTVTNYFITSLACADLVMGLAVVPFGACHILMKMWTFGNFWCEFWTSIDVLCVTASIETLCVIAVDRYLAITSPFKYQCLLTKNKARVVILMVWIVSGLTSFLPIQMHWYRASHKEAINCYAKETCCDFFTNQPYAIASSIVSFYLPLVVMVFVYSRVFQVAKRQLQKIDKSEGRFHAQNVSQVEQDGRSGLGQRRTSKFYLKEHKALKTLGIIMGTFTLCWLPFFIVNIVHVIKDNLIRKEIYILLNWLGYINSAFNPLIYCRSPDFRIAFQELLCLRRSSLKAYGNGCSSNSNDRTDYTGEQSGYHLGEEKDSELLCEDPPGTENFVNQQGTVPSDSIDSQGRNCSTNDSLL
Kind of assay: cAMP induction in CHO cells transfected with bovine β 2-AR construct (LANCE cAMP kit). The class given is cell-based. The settings on record: 45 min, 5 mM theophylline, ND = cAMP not detected or insufficient for EC50.
Description: All samples and standards were tested in duplicate for each repetition, and 4 repetitions per cell line were performed for each potential ligand tested. Controls included no treatment (media alone), 5 mM theophylline alone (an inhibitor of phosphodiesterase), 0.1 % DMSO alone, and water alone. […] A volume of media equal to the volume of test material to be added was removed from the well just prior to stimulation. Theophylline was added in a volume of 25 µL to obtain a final concentration of 5 mM and each test molecule was delivered in 10 µL. […] The reaction was incubated for 20 hr prior to measuring fluorescence. […]

The subject of assay [10] is bovine i.m. adipose tissue. In words: Lipolysis: NEFA release, i.m. adipose tissue explants. The note with it: 30 min; for Effect on NEFA release (in words): i.m. adipose tissue; for NEFA: i.m., mean ± SEM, baseline 0.65 ± 0.20. It is filed as cell-based, bovine (Angus cross steers).
Setting [11] is: s.c., pretreatment 1 µM LUB alone or with 10 µM L-748,337, P < 0.05.

The values that follow come from article PMC8326056 (Journal of Animal Science, 2021).

Entries after “also recorded” stand apart in the source; their conditions may differ. Where a name gives a salt, the structure may show the parent alone.

T1 sequence (P46626 whole entry): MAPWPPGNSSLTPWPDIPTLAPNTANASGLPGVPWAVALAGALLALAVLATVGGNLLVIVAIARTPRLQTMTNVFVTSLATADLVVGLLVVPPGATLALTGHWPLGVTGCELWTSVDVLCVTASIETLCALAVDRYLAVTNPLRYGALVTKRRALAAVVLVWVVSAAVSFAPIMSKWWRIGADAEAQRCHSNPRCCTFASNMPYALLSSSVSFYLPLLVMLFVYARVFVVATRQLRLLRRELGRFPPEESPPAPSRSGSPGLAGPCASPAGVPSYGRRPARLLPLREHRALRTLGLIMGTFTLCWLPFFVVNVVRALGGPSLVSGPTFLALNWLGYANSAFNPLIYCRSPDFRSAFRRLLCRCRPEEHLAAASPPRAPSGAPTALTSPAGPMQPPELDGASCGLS

Usually EC50 stands for the concentration that produces a half-maximal response. Read a low EC50 as a more potent agent. `CC(C)(Cc1ccc(Oc2ncccc2C#N)cc1)NC[C@H](O)COc1ccccc1-c1cccs1.CC(C)(Cc1ccc(Oc2ncccc2C#N)cc1)NC[C@H](O)COc1ccccc1-c1cccs1.O=C(O)/C=C/C(=O)O` [LUB, lubabegron fumarate]: the EC50 in [1] came out at 6 nM; in assay [7], 190 nM. Also, the “Effect of LUB pretreatment on cAMP with DOB or SAL” value in assay [2] (i.m. adipose explants, 1 µM LUB) is recorded as “without effect”. For the same compound, in assay [2] (i.m., cAMP readout, mean ± SEM, n = 12 cattle, combinations: preincubation with 1 µM LUB ± 10 µM L-748,337, N.A. = not possible to calculate EC50), the “Adipose tissue lipolytic sensitivity (−logEC50) to β-AR ligands, i.m.” value is given as “not demonstrable”. Further, the “Effect of LUB on cAMP production in tissue pretreated with antagonist” value is listed as “depressed cAMP production” in [3] (30 min preincubation with 10 µM L-748,337, then LUB); “no effect” in [3] (30 min preincubation with 50 µM PRO, then LUB); “reduced by LUB in a dose–response manner” in [4] (s.c., 30 min preincubation with 10 µM L-748,337, then LUB 10^–9 to 10^–4 M); “reduced by LUB in a dose–response manner” in [4] (s.c., 30 min preincubation with 50 µM PRO, then LUB 10^–9 to 10^–4 M). Also, the “Effect on cAMP (in words)” value in assay [4] is reported as “Neither BRL-37344 nor LUB influenced cAMP or NEFA concentrations”. For the same compound, the “Adipose tissue lipolytic sensitivity (−logEC50) to β-AR ligands, s.c.” value in [4] (s.c., cAMP readout, mean ± SEM, n = 12 cattle, combinations: preincubation with 1 µM LUB ± 10 µM L-748,337) is on record as 7.40 ± 1.78^2. Moreover, the “Effect on the EC50 of the SAL cAMP response” value in [4] (s.c., pretreatment 1 µM LUB alone or with 10 µM L-748,337, P < 0.0001) is recorded as “significantly increased”. Besides, the “Effect on the maximal cAMP response to DOB” value in assay [4] (setting [11]) is “significantly diminished the maximal cAMP response”. In addition, in assay [4] (setting [11]), the “Effect on the maximal cAMP response to SAL” value is on record as “attenuated the maximal cAMP response”. In addition, in assay [4] (s.c., pretreatment 1 µM LUB alone or with 10 µM L-748,337, P > 0.05), the “Effect on the EC50 of the cAMP response to DOB” value is “not a significant change”. In addition, the “Effect on glycerol release (in words)” value in assay [5] (s.c. adipose tissue) and in assay [8] was “did not affect” throughout. Besides, the “Effect on NEFA release (in words)” value is “did not affect; also recorded: Neither BRL-37344 nor LUB influenced cAMP or NEFA concentrations” in [6] and “did not affect; also recorded: not influenced” in [10]. For the same compound, the “Induction of cAMP (EC50), β 2-Construct” value in [9] is “no detectible agonistic activity”.

For `CC(C)N[C@@H]1CCn2c(=O)[nH]c3cccc(c32)[C@H]1O` (racemic) [ZIL, zilpaterol hydrochloride], in assay [1], the EC50 was 9100 nM. Besides, the “Effect on cAMP (in words)” value in assay [2] (i.m. adipose tissue, ligand alone, 30 min) is on record as “Neither RAC nor ZIL (10^–8 to 10^–6 M) affected cAMP concentrations”; in [4], “Neither RAC nor ZIL (10^–8 to 10^–6 M) affected cAMP concentrations”. Besides, the cAMP in assay [2] (i.m., 10^–6 M ligand, 30 min, mean ± SEM) is listed as 0.78 ± 0.39 pmol/100 mg tissue; in assay [2] (i.m., 10^–7 M ligand, 30 min, mean ± SEM) it was 0.51 ± 0.13 pmol/100 mg tissue; in assay [2] (i.m., 10^–8 M ligand, 30 min, mean ± SEM), 0.79 ± 0.30 pmol/100 mg tissue; in assay [4] (s.c., 10^–6 M ligand, mean ± SEM) it was 0.62 ± 0.27 pmol/100 mg tissue; in assay [4] (s.c., 10^–7 M ligand, mean ± SEM), 0.61 ± 0.27 pmol/100 mg tissue; in assay [4] (s.c., 10^–8 M ligand, mean ± SEM), 0.76 ± 0.37 pmol/100 mg tissue. Also, the Glycerol was 65.9 ± 12.6 nmol/100 mg tissue in [5] (10^–6 M ligand); 59.3 ± 15.4 nmol/100 mg tissue in [5] (10^–7 M ligand); 54.8 ± 8.0 nmol/100 mg tissue in assay [5] (10^–8 M ligand); 46.0 ± 14.5 nmol/100 mg tissue in [8] (10^–6 M ligand); 48.6 ± 13.7 nmol/100 mg tissue in assay [8] (10^–7 M ligand); 67.4 ± 21.6 nmol/100 mg tissue in [8] (10^–8 M ligand). Moreover, the “Effect on NEFA release (in words)” value in [6] and in assay [10] was “Neither RAC nor ZIL affected cAMP production or glycerol or NEFA release” each time. Also, the NEFA is reported as 1.17 ± 0.35 µmol/100 mg tissue in assay [6] (10^–6 M ligand); 1.25 ± 0.31 µmol/100 mg tissue in [6] (10^–7 M ligand); 1.06 ± 0.30 µmol/100 mg tissue in [6] (10^–8 M ligand); 0.50 ± 0.16 µmol/100 mg tissue in assay [10] (10^–6 M ligand); 0.91 ± 0.30 µmol/100 mg tissue in assay [10] (10^–7 M ligand); 0.78 ± 0.28 µmol/100 mg tissue in assay [10] (10^–8 M ligand). Moreover, the “Induction of cAMP (EC50), β 1-Construct” value in assay [7] was “no detectible cAMP response”. In addition, the “Effect on glycerol release (in words)” value in assay [8] is given as “Neither RAC nor ZIL affected cAMP production or glycerol or NEFA release”.
